Source: patent US7482308B2, “Difluoromethanesulfonyl anilide derivatives useful as herbicides” (Bayer CropScience AG, priority 2004, dated 2009)

How the values were obtained:
Assay type in all cases: in vivo
[1] = tested on: Monochoria vaginalis Presi; assay: Test for residual effectiveness against paddy field weeds (Test Example 2); details: 60 g ai/ha; period of maintaining herbicidal effect of higher than 80%
From the text: (§1) In a green house a 1000 cm^2 pot was filled with paddy field soil and water was poured to a depth of about 2 to 3 cm. A prescribed, diluted solution of the above-mentioned Test Example 1, was applied to the surface of water. After the prescribed time after the treatment (just after treatment, 1 week, 2 weeks, 3 weeks, 4 weeks, 5 weeks, 6 weeks and 7 weeks after treatment), seeds or tubers of the weeds to be tested Scirpus juncoides Roxburgh, Monochoria vaginalis Presi, annual broad-leaved weeds (Lindernia procumbens Philcox, Rotala indica Koehne, Elatine triandra Schk, Ammannia multiflora Roxb., etc.), Cyperus serotinus Rottboel and Sagittaria pygmaea Miq. were inoculated. Three weeks after the inoculation each herbicidal effect was examined.
(§2) The evaluation of the residual effectiveness was shown as the period (number of weeks) of maintaining herbicidal effect of higher than 80%, after the evaluation of herbicidal effect had been conducted in the similar manner as the above-mentioned Test Example 1.

[2] = tested on: annual broad-leaved weeds; assay: as above; details: 60 g ai/ha; period of maintaining herbicidal effect of higher than 80%
From the text: as §1, §2

[3] = tested on: Sagittaria pygmaea Miq.; assay: as above; details: 60 g ai/ha; period of maintaining herbicidal effect of higher than 80%
From the text: as §1, §2

[4] = tested on: Cyperus serotinus Rottboel; assay: as above; details: 60 g ai/ha; period of maintaining herbicidal effect of higher than 80%
From the text: as §1, §2

[5] = tested on: Scirpus juncoides Roxburgh; assay: as above; details: 60 g ai/ha; period of maintaining herbicidal effect of higher than 80%
From the text: as §1, §2

[6] = tested on: Monochoria vaginalis Presi; assay: Test for herbicidal effect against paddy field weeds (Test Example 1); details: examined 3 weeks after treatment
Experimental: (§3) Preparation of Formulation of the Active Compound
(§4) • Carrier: DMF 5 parts by weight • Emulsifier: Benzyloxy polyglycol ether 1 part by weight
(§5) A formulation of an active compound is obtained as an emulsifiable concentrate by mixing 1 part by weight of the active compound with the above-mentioned amount of the carrier and emulsifier. A prescribed amount of the formulation is diluted with water.
(§6) In a green house seeds or tubers of Scirpus juncoides Roxburgh, Monochoria vaginalis Presi, annual broad-leaved weeds (Lindemia procumbens Philcox, Rotala indica Koehne, Elatine triandra Schk, Ammannia multiflora Roxb., etc.), Cyperus serotinus Rottboel were inoculated in a 500 cm^2 pot filled with paddy field soil. Then water was poured to a depth of about 2-3 cm. Five days and 13 days after inoculation, a prescribed, diluted solution of the formulation of each active compound, prepared according to the aforementioned preparation method, was applied to the surface of water. After the treatment the water depth of 3 cm was maintained and the herbicidal effect was examined after 3 weeks from the treatment.
(§7) The herbicidal effect was rated 100% in the case of complete death and as 0% in the case of no herbicidal effect. In case of showing higher than 80% herbicidal effect, it is evaluated as practical as herbicide.

[7] = tested on: annual broad-leaved weeds; assay: as above; details: examined 3 weeks after treatment
Experimental: as §3, §4, §5, §6, §7

[8] = tested on: Cyperus serotinus Rottboel; assay: as above; details: examined 3 weeks after treatment
Experimental: as §3, §4, §5, §6, §7

[9] = tested on: Scirpus juncoides Roxburgh; assay: as above; details: examined 3 weeks after treatment
Experimental: as §3, §4, §5, §6, §7

[10] = tested on: sulfonylurea resistant Lindernia procumbens Philcox (collected in Higashi-Hiroshima area, Hiroshima Pref.); assay: Test for herbicidal effect against sulfonylurea resistant weeds (Test Example 3); details: applied at beginning of emergence, examined 3 weeks after treatment
From the text: (§8) In a green house seeds of Scirpus juncoides Roxburgh (collected in Iwamizawa area, Hokkaido), Lindernia procumbens Philcox (collected in Kazo area, Saitama Pref.), Lindernia procumbens Philcox (collected in Higashi-Hiroshima area, Hiroshima Pref.), Elatine triandra Schk (collected in Kazo area, Saitama Pref.), all of which were confirmed as sulfonylurea resistant, were inoculated in a 20 cm^2 cup filled with paddy field soil. Then water was poured to a depth of about 2 to 3 cm. At the beginning of emergence of each weed, a prescribed, diluted solution of the formulation of each active compound prepared in the same manner as the above-mentioned Test Example 1 was applied to the surface of water. After the treatment the water depth of 3 cm was maintained and the herbicidal effect was examined after 3 weeks from the treatment. The evaluation of the herbicidal effect was conducted in the same manner as the above-mentioned Test Example 1. In case of showing higher than 80% herbicidal effect, it is evaluated as practical as herbicide. In consideration of the possibility that the biological properties including herbicide resistance of the plants grown in different areas might be different, sulfonylurea resistant Lindernia procumbens Philcox collected in two different areas were used in the present tests. The study results with the compounds No. 1, 3, 11 and 17 and the comparative compound No. C-1 as specific examples are shown in the following Table 6.

[11] = tested on: sulfonylurea resistant Elatine triandra Schk (collected in Kazo area, Saitama Pref.); assay: as above; details: applied at beginning of emergence, examined 3 weeks after treatment
From the text: as §8

[12] = tested on: sulfonylurea resistant Scirpus juncoides Roxburgh (collected in Iwamizawa area, Hokkaido); assay: as above; details: applied at beginning of emergence, examined 3 weeks after treatment
From the text: as §8

[13] = tested on: sulfonylurea resistant Lindernia procumbens Philcox (collected in Kazo area, Saitama Pref.); assay: as above; details: applied at beginning of emergence, examined 3 weeks after treatment
From the text: as §8

[14] = tested on: transplanted rice (var. Nipponbare); assay: Test for phytotoxicity to transplanted rice (Test Example 4); details: 60 g ai/ha, application 5 days after transplanting, examined 2 weeks after treatment
Experimental: The phytotoxicity to transplanted rice was evaluated under the conditions with more shallow planting depths than usual depth of 2 cm, simulating the severe condition for herbicides to cause rice injury in the paddy. In a greenhouse 2 to 2.5 leaf-stage of rice (var. Nipponbare) was transplanted at three different depths, in a 1000 cm^2 pot filled with paddy field soil. Then water was poured to a depth of about 2 to about 3 cm. Five days after transplanting, a prescribed, diluted solution of the formulation of each active compound, prepared in the same manner as the above-mentioned Test Example 1, was applied to the surface of water. After the treatment the water depth of 3 cm was maintained and the rice injury was examined after 2 weeks from the treatment. The rice injury was rated 100% in the case of complete death and as 0% in the case of no injury. In case of showing less than 20% injury, it is evaluated as practical as rice herbicide.

[15] = 15 g ai/ha, application 5 days after inoculation
[16] = 15 g ai/ha, application 13 days after inoculation
[17] = 30 g ai/ha, application 5 days after inoculation
[18] = 30 g ai/ha, application 13 days after inoculation

COc1cc(OC)nc(C(O)c2cccc(F)c2NS(=O)(=O)C(F)F)n1 (stereo not drawn) [Compound 1, 2-fluoro-6-[(4,6-dimethoxypyrimidin-2-yl)hydroxymethyl]-N-difluoromethanesulfonanilide]
period showing sufficient residual herbicidal effectiveness Monochoria vaginalis [1]: 4 week
period showing sufficient residual herbicidal effectiveness broad-leaved weeds [2]: 3 week
period showing sufficient residual herbicidal effectiveness Sagittaria pygmaea [3]: 3 week
period showing sufficient residual herbicidal effectiveness Cyperus serotinus [4]: 3 week
period showing sufficient residual herbicidal effectiveness Scirpus juncoides [5]: 6 week
herbicidal effect Monochoria vaginalis [6, 15]: 100%
herbicidal effect Monochoria vaginalis [6, 16]: 100%
herbicidal effect Monochoria vaginalis [6, 17]: 100%
herbicidal effect Monochoria vaginalis [6, 18]: 100%
herbicidal effect broad-leaved weeds [7, 15]: 100%
herbicidal effect broad-leaved weeds [7, 16]: 95%
herbicidal effect broad-leaved weeds [7, 17]: 100%
herbicidal effect broad-leaved weeds [7, 18]: 100%
herbicidal effect Cyperus serotinus [8, 15]: 100%
herbicidal effect Cyperus serotinus [8, 16]: 95%
herbicidal effect Cyperus serotinus [8, 17]: 100%
herbicidal effect Cyperus serotinus [8, 18]: 100%
herbicidal effect Scirpus juncoides [9, 15]: 100%
herbicidal effect Scirpus juncoides [9, 16]: 100%
herbicidal effect Scirpus juncoides [9, 17]: 100%
herbicidal effect Scirpus juncoides [9, 18]: 100%
herbicidal effect against sulfonylurea resistant weeds Lindernia procumbens (collected in Higashi-Hiroshima area, Hiroshima Pref.) ([10]; 30 g ai/ha): 100%
herbicidal effect against sulfonylurea resistant weeds Lindernia procumbens (collected in Higashi-Hiroshima area, Hiroshima Pref.) ([10]; 60 g ai/ha): 100%
herbicidal effect against sulfonylurea resistant weeds Elatine triandra (collected in Kazo area, Saitama Pref.) ([11]; 30 g ai/ha): 100%
herbicidal effect against sulfonylurea resistant weeds Elatine triandra (collected in Kazo area, Saitama Pref.) ([11]; 60 g ai/ha): 100%
herbicidal effect against sulfonylurea resistant weeds Scirpus juncoides (collected in Iwamizawa area, Hokkaido) ([12]; 30 g ai/ha): 100%
herbicidal effect against sulfonylurea resistant weeds Scirpus juncoides (collected in Iwamizawa area, Hokkaido) ([12]; 60 g ai/ha): 100%
herbicidal effect against sulfonylurea resistant weeds Lindernia procumbens (collected in Kazo area, Saitama Pref.) ([13]; 30 g ai/ha): 95%
herbicidal effect against sulfonylurea resistant weeds Lindernia procumbens (collected in Kazo area, Saitama Pref.) ([13]; 60 g ai/ha): 100%

COc1cc(OC)nc(C(O)c2cccc(F)c2NS(=O)(=O)C(F)(F)F)n1 (stereo not drawn) [Compound C-1, reference compound]
phytotoxicity to transplanted rice depth 0.5 cm ([14]; planting depth 0.5 cm): 35%
phytotoxicity to transplanted rice depth 2 cm ([14]; planting depth 2 cm): 20%
period showing sufficient residual herbicidal effectiveness Monochoria vaginalis [1]: <1 week
period showing sufficient residual herbicidal effectiveness broad-leaved weeds [2]: <1 week
period showing sufficient residual herbicidal effectiveness Sagittaria pygmaea [3]: 1 week
period showing sufficient residual herbicidal effectiveness Cyperus serotinus [4]: 1 week
period showing sufficient residual herbicidal effectiveness Scirpus juncoides [5]: 2 week
herbicidal effect Monochoria vaginalis [6, 15]: 60%
herbicidal effect Monochoria vaginalis [6, 16]: 50%
herbicidal effect Monochoria vaginalis [6, 17]: 80%
herbicidal effect Monochoria vaginalis [6, 18]: 60%
herbicidal effect broad-leaved weeds [7, 15]: 50%
herbicidal effect broad-leaved weeds [7, 16]: 40%
herbicidal effect broad-leaved weeds [7, 17]: 80%
herbicidal effect broad-leaved weeds [7, 18]: 60%
herbicidal effect Cyperus serotinus [8, 15]: 70%
herbicidal effect Cyperus serotinus [8, 16]: 60%
herbicidal effect Cyperus serotinus [8, 17]: 80%
herbicidal effect Cyperus serotinus [8, 18]: 60%
herbicidal effect Scirpus juncoides [9, 15]: 70%
herbicidal effect Scirpus juncoides [9, 16]: 60%
herbicidal effect Scirpus juncoides [9, 17]: 80%
herbicidal effect Scirpus juncoides [9, 18]: 70%
herbicidal effect against sulfonylurea resistant weeds Lindernia procumbens (collected in Higashi-Hiroshima area, Hiroshima Pref.) ([10]; 30 g ai/ha): 50%
herbicidal effect against sulfonylurea resistant weeds Lindernia procumbens (collected in Higashi-Hiroshima area, Hiroshima Pref.) ([10]; 60 g ai/ha): 80%
herbicidal effect against sulfonylurea resistant weeds Elatine triandra (collected in Kazo area, Saitama Pref.) ([11]; 30 g ai/ha): 60%
herbicidal effect against sulfonylurea resistant weeds Elatine triandra (collected in Kazo area, Saitama Pref.) ([11]; 60 g ai/ha): 70%
herbicidal effect against sulfonylurea resistant weeds Scirpus juncoides (collected in Iwamizawa area, Hokkaido) ([12]; 30 g ai/ha): 60%
herbicidal effect against sulfonylurea resistant weeds Scirpus juncoides (collected in Iwamizawa area, Hokkaido) ([12]; 60 g ai/ha): 70%
herbicidal effect against sulfonylurea resistant weeds Lindernia procumbens (collected in Kazo area, Saitama Pref.) ([13]; 30 g ai/ha): 40%
herbicidal effect against sulfonylurea resistant weeds Lindernia procumbens (collected in Kazo area, Saitama Pref.) ([13]; 60 g ai/ha): 60%
